Experimental data published in patent US8933122B2, “Use of cationic surfactants as sporicidal agents” (Laboratorios Miret, S.A., priority 2008, dated 2015).

Columns and labels:
[1] = test system: endospores from Thermoanaerobacterium thermosaccharolyticum ATCC 7956; assay: Sporicidal activity, quantitative suspension test EN 13704:2002 (Example 4); format: cell-based; details: 20° C.; for calculated reduction R=N×0.1/Na: 60 minutes; for Test of LAE sporicidal activity (Na), surviving spores count: water as interfering substance, N 0.65 × 10^6 cfu/mL
Experimental: The determination of the sporicidal activity of LAE has been carried out according to the European standard EN 13704:2002: “Chemical disinfectant—Quantitative suspension test for the evaluation of sporicidal activity of chemical disinfectants used in food, industrial, domestic and institutional areas—Test method and requirements”.
A test suspension containing endospores from Thermoanaerobacterium thermosaccharolyticum ATCC 7956 was prepared from a culture grown on a nutrient agar, to which additional sporulation enhancement ingredients were added. Plates were harvested with sterile water and endospores were purified by repeated centrifugations and resuspensions in water.
Neutralizer. The neutralizer mixture consisted of 30 g/L polysorbate 80 in water. The solution was intended to neutralize any chemicals so that these would not affect subsequent growth of the bacteria.
The sporicidal activity of a given product is defined by its capacity to reduce at least by 10^3 the amount of Thermoanaerobacterium thermosaccharolyticum bacterial spores in suspension, in the conditions established in the method.
The product was in contact with a suspension of bacterial spores during an established period of time of 60 minutes. An interfering substance can be added to the suspension, in this case water. Next, the effect of the product is neutralized by adding a neutralizer previously chosen, preceding to the surviving spores count.
• 1. Spore suspension obtained from a spored-form culture of Thermoanaerobacterium thermosaccharolyticum. • 2. Count of the spore suspension of Thermoanaerobacterium thermosaccharolyticum. • 3. The possible toxic effect of the neutralizer on the spores in the absence of the product is valued. • 4. Validation of the dilution-neutralisation method. • 5. Evaluation of the inhibitory sporicide effect of the product. • 6. Result calculation. Results: Results are expressed as the reduction of viability of the spore suspension in regards to:
Tabulation of the Method and Test Validation Results (at 20° C.):
A product is considered sporicidal if its use results in a reduction (R) in the number of Thermoanaerobacterium thermosaccharolyticum bacterial spores equal to or above 10^3 after being in contact for 60 minutes in the conditions set in EN 13704:2002.

[2] = test system: Listeria monocytogenes ATCC 7644; details: Gram + Bacteria; cited from earlier work
[3] = test system: Bacillus subtilis ATCC 6633; details: Gram + Bacteria; cited from earlier work
[4] = test system: Salmonella typhimurium ATCC16028; details: Gram − Bacteria; cited from earlier work
[5] = test system: Mycobacterium phlei ATCC 41423; details: listed under Gram − Bacteria; cited from earlier work
[6] = test system: Staphylococcus aureus ATCC 6538; details: Gram + Bacteria; cited from earlier work

CCCCCCCCCCCC(=O)N[C@@H](CCCN=C(N)N)C(=O)OCC.Cl [LAE, ethyl ester of the lauramide of the arginine monohydrochloride]
calculated reduction R=N×0.1/Na ([1]; 32 μg/mL of LAE): < 10^3 cfu/mL | calculated reduction R=N×0.1/Na ([1]; 51 μg/mL of LAE): < 10^3 cfu/mL | calculated reduction R=N×0.1/Na ([1]; 102 μg/mL of LAE): > 10^3 cfu/mL | calculated reduction R=N×0.1/Na ([1]; 205 μg/mL of LAE): > 10^3 cfu/mL | concentration displaying sporicidal activity (reduction equal to or above 10^3) ([1]; 60 minutes contact, EN 13704:2002): ≥ 102 μg/mL | Test of LAE sporicidal activity (Na), surviving spores count ([1]; LAE 32 μg/mL, 60 minutes contact): 2.7 × 10^3 cfu/mL | Test of LAE sporicidal activity (Na), surviving spores count ([1]; LAE 51 μg/mL, 60 minutes contact): 1.6 × 10^3 cfu/mL | Test of LAE sporicidal activity (Na), surviving spores count ([1]; LAE 102 μg/mL, 60 minutes contact): <10^2 cfu/mL | Test of LAE sporicidal activity (Na), surviving spores count ([1]; LAE 205 μg/mL, 60 minutes contact): <10^2 cfu/mL | M.I.C. [2]: 10 ppm | M.I.C. [3]: 16 ppm | M.I.C. [4]: 32 ppm | M.I.C. [5]: 2 ppm | M.I.C. [6]: 32 ppm
